Measurements taken from patent publication US8999959B2, “Drug for treating liver lesions caused by the action of chemical or biological agents” (priority 2010, dated 2015).

Assays:
[1] = test system: liver cirrhosis induced by carbon tetrachloride (CCl4); assay: Treatment of liver cirrhosis (CCl4) in rats by oral administration; type: in vivo; parameters: Relative liver mass: unit not given here
Description: Treatment of liver cirrhosis by oral administration of the inventive substance. Liver cirrhosis was induced in rats by means of intragastric administration of 50% solution of carbon tetrachloride (CCl4) in olive oil in the amount of 1 ml/kg during 10 days. After 20 days the presence of liver cirrhosis was confirmed by morphological image of liver in all laboratory animals. Starting from that day, for 10 days the inventive agent was administered to the laboratory animals by way of treatment, once every 24 hours, in varying amounts in order to refine the optimal treatment procedure.
The effectiveness of the inventive preparation was evaluated in comparison with Essentiale by several groups of indices: morphometric, biochemical and functional. First of all the clinical performance of intoxication was observed. The clinical performance in the group of rats that received CCl4 with no treatment was characterized by hypodynamia, dormancy, disheveled hair and untidy appearance of the animals. They gained weight less well than the other rats. In this group by day 15 of the study 80% of the animals were dead, in the group that received Essentiale—60%, in the group that received the inventive agent—40%.
Quantitative assessment of the preparation's effectiveness in treatment of toxic hepatitis was performed using a point rating system, taking into account the marker indices: the largest score for each index was assigned to the group with the more pronounced positive effect of the preparation.

[2] = test system: toxic hepatitis caused by carbon tetrachloride (CCl4); assay: Treatment of acute toxic hepatitis (CCl4) in rats by parenteral (intravenous) administration; type: in vivo; parameters: Total bilirubin, serum: unit not given here
Description: Treatment of toxic hepatitis by means of parenteral administration of the inventive substance. Acute toxic hepatitis was induced in rats by means of intragastric administration of 50% solution of carbon tetrachloride (CCl4) in olive oil in the amount of 1 ml/kg during 6 days. After 10 days the presence of toxic hepatitis was confirmed by morphological image of liver in all experimental animals. Starting from that day, for 10 days the preparations were administered to the experimental animals by way of treatment, once every 24 hours.
Essentiale was used as the preparation for comparison, which was administered in ampoules in the amount of 1 ml/100 g intravenously, slowly, into the caudal vein. The inventive substance was also administered intravenously in varying amounts in order to refine the treatment procedure. The effectiveness of treatment was evaluated on the basis of clinical performance, body weight dynamics, relative liver mass, the contents of bilirubin, transaminases, phosphatases, ceruloplasmin, total protein, blood serum lipids, the contents of glycogen, glutathione, SH-groups, stress tests (hexenal test, bromsulphalein test) and the histological pattern of liver.
Weight dynamics of the rats were determined by means of scales VLR-500. Liver of the animals was weighted using electronic scales 1602 MP by “Sartorius”. The contents of reduced glutathione in liver and the content of sulfhydryl groups in blood serum was evaluated by amperometric titration according to Rubinnaya N. S. (Stalnaya I.D., Garishvili T. G Modern methods in biochemistry. Moscow, Meditsina, 1977, pp. 66-68), the contents of glycogen—by the Samodi method (Stalnaya I.D., Garishvili T. G Modern methods in biochemistry. Moscow, Meditsina, 1977, pp. 66-68). The antitoxic function of liver was evaluated by the duration of hexenal sleep (70 mg per 1 kg of body weight), and the excretory function of liver was assessed by means of bromsulphalein test.
Blood for biochemical tests was obtained by means of paracentesis of the caudal vein of rats.
The activity of ALT, AST, ALP, ACP, LDH, thymol test, the contents of total protein and lipids, cholesterol, blood serum bilirubin were assessed by means of sets Bio-Lat-Test manufactured by a Czech company “Lachema”, the contents of ceruloplasmin were assessed according to Babenko (Laboratory research methods in clinical practice. Reference book, under the editorship of V. V. Menshikov. Moscow, Russia—Meditsina, 1987, p. 365). The animals were killed by decapitation, subjected to anatomicopathological autopsy and histological study. The experimental and reference rats were killed by means of decapitation. The material was fixed in 10-15% formaldehyde and embedded in paraffin. Paraffin slices were stained by means of hematoxylin and eosin. Fixed frozen slices were stained for fat by means of Sudan III.
Statistical processing of the experiments' results was done according to Student's T-distribution and F-distribution.
The effectiveness of preparations was assessed according to several groups of indices: morphometric, biochemical and functional. First of all the clinical performance of intoxication was observed. The clinical performance in the group of rats that received CCl4 with no treatment was characterized by hypodynamia, dormancy, disheveled hair and untidy appearance of the animals. They gained weight less well than the other rats. In this group, by day 15 of the study 80% of animals were dead.

[3] = point rating system, larger score = more pronounced positive effect, inventive substance 180 mg/kg, Essentiale 100 mg/kg
[4] = rats, CCl4 intoxication (cirrhosis), after 10 days oral treatment, inventive substance 90 mg/kg, Essentiale 100 mg/kg, M ± m
[5] = rats, CCl4 liver cirrhosis, oral treatment
[6] = CCl4 intoxication, after 10 days i.v. treatment, inventive substance 25 mg/kg, Essentiale 1 ml/100 g, M ± m

O=Nc1c(O)n(-c2ccc(Br)cc2)c(=O)[nH]c1=O [The inventive substance, 1-(4-bromophenyl)-6-hydroxy-5-nitroso-1,2,3,4-tetrahydropyrimidine-2.4-dione]
Quantitative assessment of effectiveness, ALP score [1, 3]: 11 points
Quantitative assessment of effectiveness, ALT score [1, 3]: 7 points
Quantitative assessment of effectiveness, AST score [1, 3]: 7 points
Quantitative assessment of effectiveness, Hexenal sleep score [1, 3]: 10 points
Quantitative assessment of effectiveness, Weight coefficient score [1, 3]: 10 points
Body weight ([1]; rats, CCl4 intoxication (cirrhosis), after 10 days oral treatment once every 24 h, inventive substance 90 mg/kg, Essentiale 100 mg/kg, M ± m): 174 ± 7 g
Alanine aminotransferase, serum [1, 4]: 0.85 ± 0.08 µmol/s/L
Alkaline phosphatase, serum [1, 4]: 811 ± 26.3 nmol/s/L
Aspartate aminotransferase, serum [1, 4]: 0.32 ± 0.04 µmol/s/L
Hexenal sleep [1, 4]: 31.0 ± 2.0 min
Relative liver mass [1, 4]: 27.87 ± 1.03
degenerative changes of the liver (histology, in words) ([1]; rats, CCl4 liver cirrhosis, after oral treatment, majority of rats): no degenerative changes of the liver
condition and function of liver (in words) [1, 5]: virtually completely and reliably normalized the condition and function of liver
manifestations of intoxication (clinical performance, in words) [1, 5]: reduced or almost completely arrested the manifestations of intoxication
animals dead by day 15 of the study ([1]; rats, CCl4 liver cirrhosis, oral treatment, untreated CCl4 group 80%): 40%
Quantitative assessment of effectiveness, Total points ([1]; sum of marker index scores, inventive substance 180 mg/kg, Essentiale 100 mg/kg): 45 points
Body weight ([2]; CCl4 intoxication, after 10 days i.v. treatment once every 24 h, inventive substance 25 mg/kg, Essentiale 1 ml/100 g, M ± m): 174 ± 8 g
Hexenal sleep ([2]; CCl4 intoxication, after 10 days i.v. treatment, hexenal 70 mg/kg, inventive substance 25 mg/kg, Essentiale 1 ml/100 g, M ± m): 31.0 ± 2.0 min
ACP [2, 6]: 0.75 ± 0.10 μkat/l
Alanine aminotransferase, serum [2, 6]: 0.85 ± 0.08 µmol/s/L
Alkaline phosphatase, serum [2, 6]: 811 ± 26.3 nmol/s/L
Aspartate aminotransferase, serum [2, 6]: 0.32 ± 0.04 µmol/s/L
Ceruloplasmin, serum [2, 6]: 477 ± 44 mg/L
Cholesterol, serum [2, 6]: 1.70 ± 0.19 mmol/L
Concentration of bromsulphalein at 10th minute after administrating the serum, extinction, [2, 6]: 13.5 ± 1.6 extinction
Glycogen, liver [2, 6]: 2691 ± 191 mg %
LDH [2, 6]: 5.49 ± 0.45 mmol/h/L
Reduced glutathione, liver [2, 6]: 164 ± 10 mg %
Relative liver mass [2, 6]: 27.87 ± 1.03 g/kg
SH-groups, serum [2, 6]: 1554 ± 72 mg %
Thymol test [2, 6]: 1.18 ± 0.17 turbidity units
Total bilirubin, serum [2, 6]: 3.8 ± 0.5
Total lipids, serum [2, 6]: 3.4 ± 0.09 g/L
Total protein, serum [2, 6]: 69 ± 6 g/L
microvesicular focal steatosis (liver histology, in words) ([2]; CCl4 toxic hepatitis, after i.v. treatment): absence of microvesicular focal steatosis
percentage of deaths in the groups by the end of the treatment ([2]; CCl4 toxic hepatitis, day 20, 40% dead by start of treatment (day 10), inventive substance 25 mg/kg i.v., Essentiale 1 ml/100 g i.v.): 40%
manifestations of intoxication (clinical performance, in words) ([2]; CCl4 toxic hepatitis, i.v. treatment): reduced or almost completely arrested the manifestations of intoxication
